Source: patent publication EP2127664A1, “Change of the load state of MHC molecules by dipeptides” (priority 2008, dated 2009)
“Also recorded” adds a separate entry of the source. Peptide text beside a SMILES is read from it.

Assays:
[1] = system: HLA-DR1 restricted mouse T cell hybridoma EvHA/X5; test: In vitro T cell assay with HA306-318 and peptide-MLE; format: cell-based
From the text: (§1) Cells. Stable transfection of L929 fibroblasts (ATCC) were done to generate L101 (DRB1*0101 b86 G) or L101 (β86V) respectively (Höpner et al., (2006), supra). Epstein-Barr virus-transformed B cell 721.221(DRB1*0101) was obtained from ATCC. EvHA/X5 (DRB1*0101-restricted, HA306-318-specific) were derived from HLA-DR1tg mice (Rosloniec, E. F. (1997) J. Exp. Med. 185, 1113-1122) and were generated after fusion of the CD4+ EvHA T cell line with the BW cell (Höpner et al., (2006), supra). CD4+ T cell line PD2 , HLA-DR1 restricted and HA 306-318 specific (Falk K, et al., (2000) Eur. J. Immunol. 30, 3012-3020), ABL 908-922-specific T cell hybridoma SaABL/G2 was generated after fusing a CD4+ T cell line generated in HLA-DR1 […] mice with the BW cell.
(§2) T cell Assays. For pulse wash experiments 5x 10^4 HLA-DR-expressing cells/well were loaded for 4 h with antigenic peptides in the presence and absence of dipeptides as described above. Cells were then washed, and 5x10^4 T cells were added to the culture, which was then incubated for 24 h in Dulbecco's modified Eagle's medium, 5% fetal calf serum in 96-well U-bottom plates. However for permanent assay, HLA-DR expressing cells, T cells and dipeptide stayed together in the reaction for 48 hrs. T cell response was determined in a secondary assay with CTL-L cells (ATCC) as described previously (Falk, K., (2002) J. Biol. Chem. 277, 2709-2715). In experiments with PD-2 cell line, HTR's (as APCs) were pre-irradiated for 520 sec and then used for experiments.

human T cell line PD2 = test: as above; format: cell-based
From the text: as §1, §2

[2] = target: T1, soluble HLA-DR1 (DRA*0101, DRB1*0101) (Homo sapiens, UniProt P01903+P01911, A100R/D57E/F55L/F60I/F76Y/I96L/L162R/M171V/P40L/Q125E/R42F/V115G/Y59C); test: Peptide loading of soluble HLA-DR1 with HA306-318 (ELISA); format: biochemical; conditions: for catalytic rate enhancement: mean activity, soluble HLA-DR1 (DRB1*0101); for complex formation between HA306-318 and soluble HLA-DR1 (catalytic activity): titrated amounts of dipeptide, 100nM HLA-DR1, phosphate-buffered saline pH 7.4, 37 °C, 1 h
T1 construct: Recombinant soluble HLA-DR1 (DRA*0101, DRB1*0101) (Sloan, V. S (1995) Nature 375, 802-806) was produced in S2 insect cells; made in house; host or cells: S2 insect cells
From the text: Antibodies and soluble HLA-DR1. The HLA-DR-specific antibody L243 (ATCC) was purified.

CLIP/HLA-DR1 complex = target: T2, CLIP/HLA-DR1 complex (Homo sapiens, UniProt P01903+P01911, A100R/D57E/F55L/F60I/F76Y/I96L/L162R/M171V/P40L/Q125E/R42F/V115G/Y59C); test: Ligand exchange / complex dissociation of CLIP/HLA-DR1 (ELISA); format: biochemical; conditions: 10 mM dipeptide; in the presence of free HA306-318
T2 construct: soluble class II MHC molecules were preloaded with the CLIP peptide; made in house; host or cells: S2 insect cells
Experimental: Ligand-exchange of soluble HLA-DR molecules- In vitro ligand exchange experiments were carried out by loading 1,5 µM of HLA-DR1 with biotinylated IC106-120, for 20 hrs (Höpner et al., (2006), supra) in presence of 5% ethanol. HLA-DR1:IC complex was diluted to 1:15 and incubated with 200µg/ml HA peptide in presence and absence of 10mM dipeptide.

HLA-DR1 (β86G→V) = target: T3, HLA-DR1 (β86G→V) (Homo sapiens, UniProt P01903+P01911, A100R/D57E/F55L/F60I/F76Y/I96L/L162R/M171V/P40L/Q125E/R42F/Y59C); test: Loading of soluble mutated HLA-DR1 with ABL908-922 (ELISA); format: biochemical; conditions: titrated amounts of dipeptide
T3 construct: Recombinant soluble HLA-DR1 molecules were mutated at position 86; made in house; host or cells: S2 insect cells (printed for the recombinant soluble HLA-DR1; not repeated for the mutants)
Experimental: Peptide loading/ of Soluble HLA-DR Molecules- For in vitro loading experiments 100nM HLA-DR1 was incubated with 40 µg/ml (phosphate-buffered saline, pH 7.4, 37 °C, 1 h).

[3] = system: CD4+ T cell hybridoma specific for the ABL epitope (SaABL/G5); test: T cell assay, ABL908-922-loaded fibroblasts expressing HLA-DR1 (β86G→V); format: cell-based, mice; conditions: fibroblasts with mutated HLA-DR1 (β86G→V) loaded in the presence of dipeptides
From the text: as §1
as §2, with “In experiments with PD-2 cell line, HTR's (as APCs) were pre-irradiated for 520 sec and then used for experiments.” left out

[4] = target: T4, fibroblast cells transfected with mutated HLA-DR1 (β86G→V) (Homo sapiens, UniProt P01903+P01911, A100R/D57E/F55L/F60I/F76Y/I96L/L162R/M171V/P40L/Q125E/R42F/Y59C); test: Peptide loading of cell surface MHC molecules with ABL908-922 (FACS); format: cell-based; conditions: fibroblasts expressing HLA-DR1 (β86G→V)
T4 construct: transfected with full length versions of wt HLA-DR1 (β86G) and mutated HLA-DR1 (β86G→V); expressed in transfected cells
From the text: as §1
Peptide Loading of Cell Surface MHC Molecules. For loading experiments biotinylated antigenic peptides were incubated with 10 x 10^4 HLA-DR expressing cells/well in presence and absence of dipeptides at 37 °C in Dulbecco's modified Eagle's medium, 5% fetal calf serum in a 96 well V bottom plate for 4 hrs. FACS analysis was done as described previously (Höpner et al., (2006), supra).

[5] = in the presence of Ac-FR-NH2 (5 mM per Fig. 5 legend)
[6] = in the absence of the dipeptide catalyst

Molecule: CC(=O)N[C@@H](Cc1ccccc1)C(=O)N[C@@H](CCCNC(=N)N)C(N)=O [Ac-FR-NH2] (Ac-Phe-Arg-NH2)
- half-maximal response (concentration of HA306-318) [1, 5]: 0.65 ng/mL
- half-maximal response (concentration of HA306-318) (human T cell line PD2; [5]): 0.23 ng/mL
- on-rate is amplified by a factor of ([2]; in the presence of 1 mM): 7.08
- catalytic rate enhancement [2]: 6.08 mM⁻¹

Molecule: N=C(N)NCCC[C@H](NC(=O)[C@@H](N)Cc1ccc(O)cc1)C(=O)O [YR]
- complex formation between HA306-318 and soluble HLA-DR1 (catalytic activity) [2]: accelerated the MHC-loading with the HA306-318 peptide in a dose-dependent way

Molecule: CC(=O)N[C@@H](Cc1ccc(O)cc1)C(=O)N[C@@H](CCCNC(=N)N)C(N)=O [Ac-YR-NH2]
- complex dissociation of CLIP/HLA-DR1 (CLIP/HLA-DR1 complex): weaker dissociation
- increase in the catalytic activity compared to the unmodified YR peptide ([2]; complex formation between HA306-318 and HLA-DR1): more than 10 fold
- catalytic rate enhancement [2]: 3.39 mM⁻¹

Molecule: CC(=O)N[C@@H](CC(C)C)C(=O)N[C@@H](CCCNC(=N)N)C(N)=O [Ac-LR-NH2]
- effect on the HA306-318-specific T cell response ([1]; compared with Ac-FR-NH2): weaker effects
- effect on the HA306-318-specific T cell response (human T cell line PD2; compared with Ac-FR-NH2): weaker effects
- enhancement of ABL908-922 loading (HLA-DR1 (β86G→V)): best enhancement
- ABL908-922-specific T cell stimulation [3]: most efficient ABL908-922-specific stimulation
- complex dissociation of CLIP/HLA-DR1 (CLIP/HLA-DR1 complex): weaker dissociation
- loading of cells with ABL908-922 determined by FACS [4]: most effective

Molecule: CC(=O)N[C@@H](Cc1c[nH]c2ccccc12)C(=O)N[C@@H](CCCNC(=N)N)C(N)=O [Ac-WR-NH2] (Ac-Trp-Arg-NH2)
- catalytic rate enhancement [2]: 3.54 mM⁻¹

Molecule: C[C@H](N)C(=O)N[C@@H](CCCNC(=N)N)C(=O)O [AR] (H-Ala-Arg-OH)
- complex formation between HA306-318 and soluble HLA-DR1 (catalytic activity) [2]: No effect

Molecule: CC(=O)N[C@@H](C)C(=O)N[C@@H](CCCNC(=N)N)C(N)=O [Ac-AR-NH2] (Ac-Ala-Arg-NH2)
- complex formation between HA306-318 and soluble HLA-DR1 (catalytic activity) [2]: completely inactive; also recorded: abrogated the effect

Molecule: HA306-318: high-affinity peptide ligand / antigen HA306-318 (PKYVKQNTLKLAT) [reference compound]
- half-maximal response (concentration of HA306-318) [1, 6]: 31 ng/mL
- half-maximal response (concentration of HA306-318) (human T cell line PD2; [6]): 14 ng/mL

Molecule: N=C(N)NCCC[C@H](NC(=O)[C@@H](N)Cc1ccc(O)cc1)C(N)=O [YR-NH2]
- complex formation between HA306-318 and soluble HLA-DR1 (catalytic activity) [2]: partial effect

Molecule: CC(=O)N[C@@H](Cc1ccc(O)cc1)C(=O)N[C@@H](CCCNC(=N)N)C(=O)O [Ac-YR]
- complex formation between HA306-318 and soluble HLA-DR1 (catalytic activity) [2]: partial effect

Molecule: CC(=O)N[C@@H](CCC(=O)O)C(=O)N[C@@H](CCCNC(=N)N)C(N)=O [Ac-ER-NH2] (Ac-Glu-Arg-NH2)
- complex formation between HA306-318 and soluble HLA-DR1 (catalytic activity) [2]: No enhancement; also recorded: abrogated the effect
